Experimental data as given in patent publication US8552145B2, “Vaccine for modulating between T1 and T2 immune responses” (priority 2001, dated 2013).
No end group written: not given here.

What was measured:
[1] = tested on: BP1-151HSA conjugate (MUC1 24 amino acid peptide conjugated to HSA); assay: Anti-MUC1 IgG levels (serum ELISA) in MUC1 transgenic mice, BP1-151 HSA solid phase; assay type: in vivo, C57Bl/6 MUC1 transgenic mice; conditions: Protocol 1347C, 4 immunizations, individual mouse
Description: To further characterize the observed phenomenon, MUC I transgenic mice were immunized with MUC I based liposomal formulations containing mono- or dilipopeptides.

[2] = tested on: BP1-151HSA conjugate (MUC1 24 amino acid peptide conjugated to HSA); assay: Anti-MUC1 antibody levels (serum ELISA) after immunization, BP1-151-HSA solid phase; assay type: in vivo, C57BL/6 mice; conditions: for antibody levels / humoral immunity (in words): immunized mice, liposomal formulations containing lipid A adjuvant
Description: (§1) MUC1 based liposomal vaccines (“BLP25 liposomal vaccines”) at a dose of 100 μg (250 μl) was injected subcutaneously, two, three, or four times, at biweekly intervals, into right and left inguinal regions (125 μl per each site).

[3] = tested on: Blend C (natural human MUC1 mucin purified from ovarian cancer ascites); assay: Anti-MUC1 antibody levels (serum ELISA) after immunization, Blend C solid phase; assay type: in vivo; conditions: Protocol 1346; C57Bl/6 mice immunized two times, subcutaneously; individual mouse
Description: as §1

Chain of Blend C (natural human MUC1 mucin purified from ovarian cancer ascites) (P15941 24-1255): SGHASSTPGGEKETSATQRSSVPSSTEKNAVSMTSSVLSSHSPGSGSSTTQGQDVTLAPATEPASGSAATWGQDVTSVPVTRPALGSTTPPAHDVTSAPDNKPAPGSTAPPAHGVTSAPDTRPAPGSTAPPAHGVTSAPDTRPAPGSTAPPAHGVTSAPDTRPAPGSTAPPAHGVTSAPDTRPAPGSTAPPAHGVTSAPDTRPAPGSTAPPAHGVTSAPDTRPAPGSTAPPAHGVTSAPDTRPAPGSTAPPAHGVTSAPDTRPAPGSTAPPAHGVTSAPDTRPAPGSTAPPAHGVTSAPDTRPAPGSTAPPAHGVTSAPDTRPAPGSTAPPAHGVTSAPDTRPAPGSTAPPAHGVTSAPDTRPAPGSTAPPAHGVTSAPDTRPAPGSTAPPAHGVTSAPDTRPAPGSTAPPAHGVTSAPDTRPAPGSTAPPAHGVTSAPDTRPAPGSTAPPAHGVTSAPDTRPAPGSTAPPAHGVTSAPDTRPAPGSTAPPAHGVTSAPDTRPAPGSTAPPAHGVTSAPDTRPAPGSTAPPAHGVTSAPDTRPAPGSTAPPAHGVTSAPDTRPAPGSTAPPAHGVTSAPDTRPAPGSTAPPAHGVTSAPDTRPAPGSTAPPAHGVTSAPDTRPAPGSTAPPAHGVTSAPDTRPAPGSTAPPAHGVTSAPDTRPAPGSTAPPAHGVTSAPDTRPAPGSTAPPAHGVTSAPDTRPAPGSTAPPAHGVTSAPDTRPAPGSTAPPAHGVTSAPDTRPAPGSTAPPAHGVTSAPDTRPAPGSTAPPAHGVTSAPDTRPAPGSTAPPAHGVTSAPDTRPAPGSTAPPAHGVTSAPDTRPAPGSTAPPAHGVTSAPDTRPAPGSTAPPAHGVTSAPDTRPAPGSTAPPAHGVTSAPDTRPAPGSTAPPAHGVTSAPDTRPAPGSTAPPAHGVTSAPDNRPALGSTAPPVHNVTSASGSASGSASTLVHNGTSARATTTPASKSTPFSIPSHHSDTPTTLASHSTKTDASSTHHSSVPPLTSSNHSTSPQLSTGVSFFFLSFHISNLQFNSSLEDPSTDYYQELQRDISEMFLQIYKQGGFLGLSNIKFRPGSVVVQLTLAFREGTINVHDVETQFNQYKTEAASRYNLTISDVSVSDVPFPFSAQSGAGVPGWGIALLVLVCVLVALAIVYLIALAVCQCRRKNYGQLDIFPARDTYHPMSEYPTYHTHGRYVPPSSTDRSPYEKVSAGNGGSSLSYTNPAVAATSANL

| Substance | Antibody Titer, IgG, BP1-151 HSA [1] | Antibody Titer, IgG, BP1-151-HSA ([2]; Protocol 1346, C57Bl/6 mice immunized two times, subcutaneously, individual mouse) | antibody levels / humoral immunity (in words) [2] | Antibody Titer, IgG, Blend C [3] |
| --- | --- | --- | --- | --- |
| GVTSAPDTRPAPGSTAS(myristyl)S(myristyl)L [BP1-217] | strong IgG antibody response | – | – | – |
| GVTSAPDTRPAPGSTAS(myristyl)L [BP1-228] | very low titers of IgG | only low titers | very low or no antibody levels | no antibodies were detected |
| TAPPAHGVTSAPDTRPAPGSTAPPK(palmitate)K(palmitate)G [BP1-132A] | – | – | induce humoral immunity | – |
